Assay results from the kinase profiling compilation of Christmann-Franck et al. (2016).

Columns and labels:
Assay in all cases: radiometric filter-binding kinase assay
[1] = system: PRKAA1 or PRKAA2 (rat); conditions: accession and sequence are those of the human protein
[2] = target: MAPKAPK3 (human) (UniProt Q16644)
[3] = system: LCK (mouse); conditions: accession and sequence are those of the human protein
[4] = target: MAP3K9 (human) (UniProt P80192)
[5] = target: PHKG1 (human) (UniProt Q16816)
[6] = target: PRKACA (human) (UniProt P17612)
[7] = target: MAPK13 (human) (UniProt O15264)
[8] = target: AURKB (human) (UniProt Q96GD4)
[9] = target: MAP2K2 (human) (UniProt P36507)
[10] = target: MKNK1 (human) (UniProt Q9BUB5)
[11] = target: GSK3B (human) (UniProt P49841)
[12] = target: MAPK1 (human) (UniProt P28482)
[13] = target: STK11 CAB39 STRADA (human) (UniProt Q9Y376+Q7RTN6+Q15831)
[14] = target: EEF2K (human) (UniProt O00418)
[15] = target: INSRR (human) (UniProt P14616)
[16] = target: FGFR1 (human) (UniProt P11362)
[17] = target: CDK2 CCNA2 (human) (UniProt P20248+P24941)
[18] = target: MINK1 (human) (UniProt Q8N4C8)
[19] = target: MYLK (human) (UniProt Q15746)
[20] = target: TTK (human) (UniProt P33981)
[21] = target: CSK (human) (UniProt P41240); conditions: compound 0.1 µM
[22] = target: MELK (human) (UniProt Q14680)
[23] = target: MKNK2 (human) (UniProt Q9HBH9)
[24] = target: DAPK1 (human) (UniProt P53355)
[25] = target: NTRK1 (human) (UniProt P04629)
[26] = target: RPS6KA1 KD1 KD2 (human) (UniProt Q15418)
[27] = target: SRC (human) (UniProt P12931)
[28] = target: CHEK2 (human) (UniProt O96017)
[29] = target: IKBKB (human) (UniProt O14920)
[30] = target: EPHB3 (human) (UniProt P54753)
[31] = target: CSNK2A1 (human) (UniProt P68400)
[32] = system: ROCK2 (rat); conditions: accession and sequence are those of the human protein
[33] = target: PRKCZ (human) (UniProt Q05513)
[34] = target: MARK4 (human) (UniProt Q96L34)
[35] = target: ERBB4 (human) (UniProt Q15303)

Chain of MAP2K2 (human) (P36507 whole entry, looked up): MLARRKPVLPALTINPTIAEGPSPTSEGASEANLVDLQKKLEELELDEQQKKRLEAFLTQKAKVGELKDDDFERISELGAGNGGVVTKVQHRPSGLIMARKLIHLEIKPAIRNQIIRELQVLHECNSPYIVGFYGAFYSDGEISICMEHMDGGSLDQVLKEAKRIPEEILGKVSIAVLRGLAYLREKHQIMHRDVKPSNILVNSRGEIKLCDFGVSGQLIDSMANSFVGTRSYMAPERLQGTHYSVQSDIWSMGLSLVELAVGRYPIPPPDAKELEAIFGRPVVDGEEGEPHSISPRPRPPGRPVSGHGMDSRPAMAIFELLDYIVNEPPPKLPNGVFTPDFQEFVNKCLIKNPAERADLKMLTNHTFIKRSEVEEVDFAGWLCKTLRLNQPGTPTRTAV
Chain of MAPK1 (human) (P28482 whole entry, looked up): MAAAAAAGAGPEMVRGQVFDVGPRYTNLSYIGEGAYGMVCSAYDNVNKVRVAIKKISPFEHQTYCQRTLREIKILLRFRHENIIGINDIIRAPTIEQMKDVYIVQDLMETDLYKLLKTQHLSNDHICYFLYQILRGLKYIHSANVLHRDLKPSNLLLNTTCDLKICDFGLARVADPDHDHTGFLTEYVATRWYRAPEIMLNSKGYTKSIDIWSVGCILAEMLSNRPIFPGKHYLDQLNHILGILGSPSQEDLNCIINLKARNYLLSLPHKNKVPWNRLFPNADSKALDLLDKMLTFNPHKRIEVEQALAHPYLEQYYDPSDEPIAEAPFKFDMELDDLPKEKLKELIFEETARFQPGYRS
Chain of PRKCZ (human) (Q05513 whole entry, looked up): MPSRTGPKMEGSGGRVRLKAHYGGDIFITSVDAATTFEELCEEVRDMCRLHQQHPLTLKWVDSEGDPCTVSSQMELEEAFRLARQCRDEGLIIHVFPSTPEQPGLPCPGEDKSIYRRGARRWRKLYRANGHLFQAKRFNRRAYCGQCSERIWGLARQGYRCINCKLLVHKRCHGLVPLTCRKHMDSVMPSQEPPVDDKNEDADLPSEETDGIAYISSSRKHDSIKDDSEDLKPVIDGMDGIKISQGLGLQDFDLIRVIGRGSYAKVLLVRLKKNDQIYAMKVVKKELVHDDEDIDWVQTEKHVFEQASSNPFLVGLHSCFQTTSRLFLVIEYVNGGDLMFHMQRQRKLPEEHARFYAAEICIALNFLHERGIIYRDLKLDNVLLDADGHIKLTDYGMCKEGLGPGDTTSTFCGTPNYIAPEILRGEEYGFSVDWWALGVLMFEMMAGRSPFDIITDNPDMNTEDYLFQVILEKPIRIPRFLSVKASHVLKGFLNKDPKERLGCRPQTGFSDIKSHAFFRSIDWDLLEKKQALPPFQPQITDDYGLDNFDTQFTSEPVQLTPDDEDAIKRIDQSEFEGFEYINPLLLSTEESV
Chain of DAPK1 (human) (P53355 whole entry, looked up): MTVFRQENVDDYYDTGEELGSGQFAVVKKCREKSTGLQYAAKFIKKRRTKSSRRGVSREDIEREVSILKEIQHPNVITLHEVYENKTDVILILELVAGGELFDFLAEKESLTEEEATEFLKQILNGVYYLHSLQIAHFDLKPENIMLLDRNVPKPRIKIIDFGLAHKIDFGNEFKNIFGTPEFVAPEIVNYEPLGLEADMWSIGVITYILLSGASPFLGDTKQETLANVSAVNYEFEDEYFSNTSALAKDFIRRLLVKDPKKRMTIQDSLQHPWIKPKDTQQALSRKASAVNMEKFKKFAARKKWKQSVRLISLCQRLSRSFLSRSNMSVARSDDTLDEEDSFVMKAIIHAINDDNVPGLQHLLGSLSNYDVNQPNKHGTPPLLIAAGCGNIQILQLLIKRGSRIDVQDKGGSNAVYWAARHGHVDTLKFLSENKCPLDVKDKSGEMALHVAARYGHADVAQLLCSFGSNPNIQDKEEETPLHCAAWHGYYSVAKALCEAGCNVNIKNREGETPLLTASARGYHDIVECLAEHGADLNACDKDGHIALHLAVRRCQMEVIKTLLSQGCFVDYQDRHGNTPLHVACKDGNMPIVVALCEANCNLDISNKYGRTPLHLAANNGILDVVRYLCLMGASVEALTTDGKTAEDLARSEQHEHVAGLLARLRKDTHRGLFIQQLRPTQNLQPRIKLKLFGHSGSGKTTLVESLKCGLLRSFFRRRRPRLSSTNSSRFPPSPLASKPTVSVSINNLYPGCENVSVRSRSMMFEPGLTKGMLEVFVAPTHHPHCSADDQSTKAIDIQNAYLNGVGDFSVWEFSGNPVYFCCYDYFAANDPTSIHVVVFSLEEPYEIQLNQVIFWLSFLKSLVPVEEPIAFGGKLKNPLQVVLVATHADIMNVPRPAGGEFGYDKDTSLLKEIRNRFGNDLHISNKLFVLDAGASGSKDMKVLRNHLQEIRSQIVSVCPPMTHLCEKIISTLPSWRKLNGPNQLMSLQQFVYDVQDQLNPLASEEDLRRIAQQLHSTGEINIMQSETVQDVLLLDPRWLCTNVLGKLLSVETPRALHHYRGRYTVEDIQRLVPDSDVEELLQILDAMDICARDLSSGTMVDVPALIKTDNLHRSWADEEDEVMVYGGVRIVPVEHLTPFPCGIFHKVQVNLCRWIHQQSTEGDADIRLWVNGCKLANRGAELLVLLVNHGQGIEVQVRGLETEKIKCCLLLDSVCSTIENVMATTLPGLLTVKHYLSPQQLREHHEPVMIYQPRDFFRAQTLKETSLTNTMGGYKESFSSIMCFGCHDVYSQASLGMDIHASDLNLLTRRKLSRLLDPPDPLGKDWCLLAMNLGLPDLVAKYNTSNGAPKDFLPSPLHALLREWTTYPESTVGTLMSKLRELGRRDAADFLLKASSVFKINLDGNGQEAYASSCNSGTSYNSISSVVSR
Chain of MELK (human) (Q14680 whole entry, looked up): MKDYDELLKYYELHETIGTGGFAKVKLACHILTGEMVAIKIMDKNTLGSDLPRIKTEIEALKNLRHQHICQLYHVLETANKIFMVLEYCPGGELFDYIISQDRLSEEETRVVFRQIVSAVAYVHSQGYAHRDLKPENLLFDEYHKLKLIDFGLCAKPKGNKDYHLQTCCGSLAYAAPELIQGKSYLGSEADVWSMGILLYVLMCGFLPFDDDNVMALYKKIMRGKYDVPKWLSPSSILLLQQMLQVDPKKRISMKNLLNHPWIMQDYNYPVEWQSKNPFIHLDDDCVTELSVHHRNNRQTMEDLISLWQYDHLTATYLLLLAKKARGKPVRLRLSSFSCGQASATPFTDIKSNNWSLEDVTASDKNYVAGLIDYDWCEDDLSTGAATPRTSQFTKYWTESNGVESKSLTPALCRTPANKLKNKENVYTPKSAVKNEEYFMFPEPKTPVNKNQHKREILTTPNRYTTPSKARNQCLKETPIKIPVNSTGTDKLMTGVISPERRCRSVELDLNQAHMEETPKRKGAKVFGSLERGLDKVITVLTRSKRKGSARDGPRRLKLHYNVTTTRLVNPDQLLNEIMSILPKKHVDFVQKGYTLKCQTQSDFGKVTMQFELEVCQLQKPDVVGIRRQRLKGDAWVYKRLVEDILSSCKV
Chain of SRC (human) (P12931 whole entry, looked up): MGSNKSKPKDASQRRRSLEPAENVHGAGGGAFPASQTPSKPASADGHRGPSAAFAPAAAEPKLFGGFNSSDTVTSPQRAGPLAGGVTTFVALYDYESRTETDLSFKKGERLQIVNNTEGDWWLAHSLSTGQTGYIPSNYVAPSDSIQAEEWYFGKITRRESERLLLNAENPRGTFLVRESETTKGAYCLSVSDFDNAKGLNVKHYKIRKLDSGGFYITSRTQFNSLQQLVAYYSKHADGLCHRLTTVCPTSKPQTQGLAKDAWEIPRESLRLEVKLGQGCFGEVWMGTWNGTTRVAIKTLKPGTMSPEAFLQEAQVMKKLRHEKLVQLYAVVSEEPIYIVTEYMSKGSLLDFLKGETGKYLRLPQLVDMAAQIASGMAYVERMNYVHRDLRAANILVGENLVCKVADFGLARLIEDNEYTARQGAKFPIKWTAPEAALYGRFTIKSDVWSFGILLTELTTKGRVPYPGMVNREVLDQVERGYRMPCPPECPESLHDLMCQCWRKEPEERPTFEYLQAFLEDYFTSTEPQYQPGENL
Chain of MKNK2 (human) (Q9HBH9 whole entry, looked up): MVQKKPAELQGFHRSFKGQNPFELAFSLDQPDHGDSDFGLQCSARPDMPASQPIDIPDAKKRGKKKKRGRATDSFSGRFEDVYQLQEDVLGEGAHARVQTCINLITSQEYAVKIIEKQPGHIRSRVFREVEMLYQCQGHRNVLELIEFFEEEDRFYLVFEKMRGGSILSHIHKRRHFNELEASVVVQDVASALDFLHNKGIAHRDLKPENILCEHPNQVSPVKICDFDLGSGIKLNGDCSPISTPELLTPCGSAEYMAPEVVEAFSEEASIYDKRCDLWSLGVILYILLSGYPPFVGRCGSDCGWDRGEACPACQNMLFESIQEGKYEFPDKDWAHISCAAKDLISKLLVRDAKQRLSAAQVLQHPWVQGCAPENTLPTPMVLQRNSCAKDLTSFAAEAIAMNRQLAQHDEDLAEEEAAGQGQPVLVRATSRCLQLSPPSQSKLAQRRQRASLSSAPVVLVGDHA
Chain of MKNK1 (human) (Q9BUB5 whole entry, looked up): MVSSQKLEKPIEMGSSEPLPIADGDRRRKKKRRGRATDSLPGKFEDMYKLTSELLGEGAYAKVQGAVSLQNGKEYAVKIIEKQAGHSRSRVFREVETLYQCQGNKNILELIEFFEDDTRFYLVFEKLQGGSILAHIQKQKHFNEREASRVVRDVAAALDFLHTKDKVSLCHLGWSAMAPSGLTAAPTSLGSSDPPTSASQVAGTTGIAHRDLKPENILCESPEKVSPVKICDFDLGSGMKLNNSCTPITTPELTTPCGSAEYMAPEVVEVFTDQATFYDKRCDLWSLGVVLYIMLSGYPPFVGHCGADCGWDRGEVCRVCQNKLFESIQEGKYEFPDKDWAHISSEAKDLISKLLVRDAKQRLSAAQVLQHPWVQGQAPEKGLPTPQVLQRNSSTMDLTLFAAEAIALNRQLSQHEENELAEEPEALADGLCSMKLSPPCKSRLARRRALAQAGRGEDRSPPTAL

A residual activity ([1]; compound 0.01 µM) of 105%, a residual activity ([1]; compound 0.1 µM) of 105% and a residual activity ([1]; compound 1.0 µM) of 94% were found for `COc1cc(O)c2c(c1)[C@H]1OC1C[C@H](O)[C@H](O)C(=O)/C=C\C[C@H](C)OC2=O` (stereo partly specified) in this work. The residual activity ([2]; compound 0.01 µM) was 105%, the residual activity ([2]; compound 0.1 µM) was 99% and the residual activity ([2]; compound 1.0 µM) was 99%. It also gave a residual activity ([3]; compound 0.01 µM) of 79%, a residual activity ([3]; compound 0.1 µM) of 93% and a residual activity ([3]; compound 1.0 µM) of 69%. The residual activity ([4]; compound 0.01 µM) was 112%, the residual activity ([4]; compound 0.1 µM) was 117% and the residual activity ([4]; compound 1.0 µM) was 101%. It also gave a residual activity ([5]; compound 0.01 µM) of 100%, a residual activity ([5]; compound 0.1 µM) of 98% and a residual activity ([5]; compound 1.0 µM) of 107%. For the same molecule, the residual activity ([6]; compound 0.01 µM) was 91%, the residual activity ([6]; compound 0.1 µM) was 99% and the residual activity ([6]; compound 1.0 µM) was 100%. For the same molecule, the residual activity ([7]; compound 0.01 µM) was 101%, the residual activity ([7]; compound 0.1 µM) was 100% and the residual activity ([7]; compound 1.0 µM) was 108%. The residual activity ([8]; compound 0.01 µM) was 90%, the residual activity ([8]; compound 0.1 µM) was 92% and the residual activity ([8]; compound 1.0 µM) was 107%. For the same molecule, the residual activity ([9]; compound 0.01 µM) was 74%, the residual activity ([9]; compound 0.1 µM) was 21% and the residual activity ([9]; compound 1.0 µM) was 9%. For the same molecule, the residual activity ([10]; compound 0.01 µM) was 100%, the residual activity ([10]; compound 0.1 µM) was 87% and the residual activity ([10]; compound 1.0 µM) was 55%. The residual activity ([11]; compound 0.01 µM) was 91%, the residual activity ([11]; compound 0.1 µM) was 106% and the residual activity ([12]; compound 0.01 µM) was 96%. It also gave a residual activity ([12]; compound 0.1 µM) of 87%, a residual activity ([12]; compound 1.0 µM) of 36% and a residual activity ([13]; compound 0.01 µM) of 119%. The residual activity ([13]; compound 0.1 µM) was 120%, the residual activity ([13]; compound 1.0 µM) was 104% and the residual activity ([14]; compound 0.01 µM) was 91%. It also gave a residual activity ([14]; compound 0.1 µM) of 103%, a residual activity ([15]; compound 0.01 µM) of 104% and a residual activity ([15]; compound 0.1 µM) of 108%. It also gave a residual activity ([15]; compound 1.0 µM) of 113%, a residual activity ([16]; compound 0.01 µM) of 118% and a residual activity ([16]; compound 0.1 µM) of 154%. For the same molecule, the residual activity ([17]; compound 0.01 µM) was 91%, the residual activity ([17]; compound 0.1 µM) was 81% and the residual activity ([17]; compound 1.0 µM) was 76%. The residual activity ([18]; compound 0.01 µM) was 106%, the residual activity ([18]; compound 0.1 µM) was 111% and the residual activity ([18]; compound 1.0 µM) was 102%. For the same molecule, the residual activity ([19]; compound 0.01 µM) was 108%, the residual activity ([19]; compound 0.1 µM) was 102% and the residual activity ([19]; compound 1.0 µM) was 96%. The residual activity ([20]; compound 0.01 µM) was 101%, the residual activity ([20]; compound 0.1 µM) was 95% and the residual activity ([20]; compound 1.0 µM) was 101%. It also gave a residual activity [21] of 105%, a residual activity ([22]; compound 0.01 µM) of 92% and a residual activity ([22]; compound 0.1 µM) of 100%. For the same molecule, the residual activity ([22]; compound 1.0 µM) was 104%, the residual activity ([23]; compound 0.01 µM) was 91% and the residual activity ([23]; compound 0.1 µM) was 62%. For the same molecule, the residual activity ([23]; compound 1.0 µM) was 44%, the residual activity ([24]; compound 0.01 µM) was 82% and the residual activity ([24]; compound 0.1 µM) was 108%. It also gave a residual activity ([24]; compound 1.0 µM) of 96%, a residual activity ([25]; compound 0.01 µM) of 97% and a residual activity ([25]; compound 0.1 µM) of 90%. It also gave a residual activity ([25]; compound 1.0 µM) of 67%, a residual activity ([26]; compound 0.1 µM) of 92% and a residual activity ([26]; compound 1.0 µM) of 85%. The residual activity ([27]; compound 0.01 µM) was 96%, the residual activity ([27]; compound 0.1 µM) was 91% and the residual activity ([27]; compound 1.0 µM) was 86%. It also gave a residual activity ([28]; compound 0.01 µM) of 91%, a residual activity ([28]; compound 0.1 µM) of 91% and a residual activity ([29]; compound 0.01 µM) of 103%. It also gave a residual activity ([29]; compound 0.1 µM) of 100%, a residual activity ([29]; compound 1.0 µM) of 112% and a residual activity ([30]; compound 0.01 µM) of 118%. The residual activity ([30]; compound 0.1 µM) was 130%, the residual activity ([30]; compound 1.0 µM) was 92% and the residual activity ([31]; compound 0.01 µM) was 123%. For the same molecule, the residual activity ([31]; compound 0.1 µM) was 121%, the residual activity ([31]; compound 1.0 µM) was 133% and the residual activity ([32]; compound 0.01 µM) was 91%. It also gave a residual activity ([32]; compound 0.1 µM) of 94%, a residual activity ([32]; compound 1.0 µM) of 99% and a residual activity ([33]; compound 0.01 µM) of 97%. For the same molecule, the residual activity ([33]; compound 0.1 µM) was 78%, the residual activity ([33]; compound 1.0 µM) was 105% and the residual activity ([34]; compound 0.01 µM) was 103%. The residual activity ([34]; compound 0.1 µM) was 99%, the residual activity ([35]; compound 0.1 µM) was 104% and the residual activity ([35]; compound 1.0 µM) was 105%.
